Measurements taken from patent US8703784B2, “Substituted pyrazolo[1,5-a]pyrido[3.2-e]pyrimidin-6-one inhibitors of mammalian target of rapamycin” (Merck Sharp & Dohme Corp., priority 2010, dated 2014).

Target: mTOR enzyme (Homo sapiens, UniProt P42345)
Assay: mTOR Kinase Assay
Format: biochemical
Conditions: 5 μM ATP, 0.1 μM GSTS6K substrate
Method: The mTOR assay buffer contains 10 mM hepes (pH 7.4), 50 mM NaCl, 100 μg/ml BSA, 50 mM B-glycerophosphate, 10 mM MnCl2 and 0.5 mM DTT. 20 ng of mTOR enzyme is preincubated with the compound for 10 minutes. 5 μM ATP and 0.1 μM GSTS6K is added. The reaction is incubated for one hour at 30° C. Anti phospho p70S6K (about 1.7 ng/well) and anti GSTXL665 (1:1 Ratio with the substrate GSTS6K) are added after incubating. The plates are read at least 2 hours after adding the anti phospho p70S6K and the anti GSTXL665.
Dose-response curves were plotted from inhibition data generated, each in duplicate, from 8 point serial dilutions of inhibitory compounds. Concentration of compound was plotted against % kinase activity, calculated by CPM of treated samples divided by CPM of untreated samples. To generate IC50 values, the dose-response curves were then fitted to a standard sigmoidal curve and IC50 values were derived by nonlinear regression analysis.

| Compound | IC50 |
| --- | --- |
| CC(NC1CCOCC1)c1nc2c(-c3cnc4ccc(F)cc4c3)cnn2c2c1C(=O)CCN2 (stereo not drawn) [Example 28, 3-(6-fluoroquinolin-3-yl)-5-(1-(tetrahydro-2H-pyran-4-ylamino)ethyl)-8,9-dihydropyrazolo[1,5-a]pyrido[3,2-e]pyrimidin-6(7H)-one] | > 100 nM |
| O=C(c1nnc[nH]1)N1C2CCC1CC(c1nc3c(-c4ccc(-c5ccccc5)nc4)cnn3c3[nH]ccc(=O)c13)C2 (stereo not drawn) [Example 2, 5-(8-(4H-1,2,4-triazole-3-carbonyl)-8-azabicyclo[3.2.1]octan-3-yl)-3-(6-phenylpyridin-3-yl)pyrazolo[1,5-a]pyrido[3,2-e]pyrimidin-6(9H)-one] | < 10 nM |
| (1r,4r)-1-(2-methoxyethoxy)-4-(3-(6-(1-methyl-1H-pyrazol-3-yl)pyridin-3-yl)-6-oxo-6,7,8,9-tetrahydropyrazolo[1,5-a]pyrido[3,2-e]pyrimidin-5-yl)cyclohexanecarboxylic acid [Example 26] | < 10 nM |
| O=C1CCNc2c1c(N1CCOCC1)nc1c(-c3cnc4ccccc4c3)cnn21 [Example 19, 5-morpholino-3-(quinolin-3-yl)-8,9-dihydropyrazolo[1,5-a]pyrido[3,2-e]pyrimidin-6(7H)-one] | 10 to 100 nM |
| O=C1CCNc2c1c(C1C[C@H]3COC[C@@H](C1)N3C(=O)c1nc[nH]n1)nc1c(-c3ccc(-c4ccccc4)nc3)cnn21 (stereo partly drawn) [Example 27, 5-((1R,5S)-9-(1H-1,2,4-triazole-3-carbonyl)-3-oxa-9-azabicyclo[3.3.1]nonan-7-yl)-3-(6-phenylpyridin-3-yl)-8,9-dihydropyrazolo[1,5-a]pyrido[3,2-e]pyrimidin-6(7H)-one] | < 10 nM |
| C[C@@H]1CN(c2nc3c(-c4ccc(-c5ccccc5)nc4)cnn3c3c2C(=O)CCN3)C[C@H](C)O1 [Example 20, 5-((2R,6S)-2,6-dimethylmorpholino)-3-(6-phenylpyridin-3-yl)-8,9-dihydropyrazolo[1,5-a]pyrido[3,2-e]pyrimidin-6(7H)-one] | 10 to 100 nM |
| O=C1CCNc2c1c(C1CC3CCC(C1)N3C(=O)c1nnc[nH]1)nc1c(-c3ccc(-c4ccccc4)nc3)cnn21 (stereo not drawn) [Example 1, 5-(8-(4H-1,2,4-triazole-3-carbonyl)-8-azabicyclo[3.2.1]octan-3-yl)-3-(6-phenylpyridin-3-yl)-8,9-dihydropyrazolo[1,5-a]pyrido[3,2-e]pyrimidin-6(7H)-one] | < 10 nM |
| O=C1CCNc2c1c(C1CCN(C(=O)c3nnc[nH]3)CC1)nc1c(-c3ccc(-c4ccccc4)nc3)cnn21 [Example 15, 5-(1-(4H-1,2,4-triazole-3-carbonyl)piperidin-4-yl)-3-(6-phenylpyridin-3-yl)-8,9-dihydropyrazolo[1,5-a]pyrido[3,2-e]pyrimidin-6(7H)-one] | < 10 nM |
| C[C@@H](O)C(=O)N1CCC(c2nc3c(-c4ccc(-c5ccccc5)nc4)cnn3c3c2C(=O)CCN3)CC1 [Example 17] | < 10 nM |
| Cn1ccc(-c2ccc(-c3cnn4c5c(c(C6CC7CCC(C6)N7C(=O)c6nnc[nH]6)nc34)C(=O)CCN5)cn2)n1 (stereo not drawn) [Example 4] | < 10 nM |
| COc1ccc(-c2ccc(-c3cnn4c5c(c(C6CC7CCC(C6)N7C(=O)CO)nc34)C(=O)CCN5)cn2)cc1F (stereo not drawn) [Example 6] | < 10 nM |
| O=C1CCNc2c1c(N1CCS(=O)(=O)CC1)nc1c(-c3ccc(-c4ccccc4)nc3)cnn21 [Example 22] | < 10 nM |
| O=C1CCNc2c1c(C1CCS(=O)(=O)CC1)nc1c(-c3ccc(-c4ccccc4)nc3)cnn21 [Example 23, 3-(6-phenylpyridin-3-yl)-5-(tetrahydro-1,1-dioxido-2H-thiopyran-4-yl)-8,9-dihydropyrazolo[1,5-a]pyrido[3,2-e]pyrimidin-6(7H)-one] | < 10 nM |
| COc1ccc(-c2ccc(-c3cnn4c5c(c(C6CC7CCC(C6)N7C(=O)C(C)(CO)CO)nc34)C(=O)CCN5)cn2)cc1F (stereo not drawn) [Example 8] | < 10 nM |
| COCCO[C@]1(C(=O)O)CC[C@@H](c2nc3c(-c4cnn(-c5ccccc5)c4)cnn3c3c2C(=O)CCN3)CC1 [Example 25, (1r,4r)-1-(2-methoxyethoxy)-4-(6-oxo-3-(1-phenyl-1H-pyrazol-4-yl)-6,7,8,9-tetrahydropyrazolo[1,5-a]pyrido[3,2-e]pyrimidin-5-yl)cyclohexanecarboxylic acid] | < 10 nM |
| O=C1CCNc2c1c(C1CCN(C(=O)CO)CC1)nc1c(-c3ccc(-c4ccccc4)nc3)cnn21 [Example 16] | < 10 nM |
| CC(CO)(CO)C(=O)N1CCC(c2nc3c(-c4ccc(-c5ccccc5)nc4)cnn3c3c2C(=O)CCN3)CC1 [Example 18] | < 10 nM |
| O=C1CCNc2c1c(C1CC3CCC(C1)N3C(=O)c1nnc[nH]1)nc1c(-c3ccc(-c4ccccn4)nc3)cnn21 (stereo not drawn) [Example 12] | < 10 nM |
| O=C1CCNc2c1c(C1CCS(=O)(=O)CC1)nc1c(-c3cnc4ccccc4c3)cnn21 [Example 24, 3-(quinolin-3-yl)-5-(tetrahydro-1,1-dioxido-2H-thiopyran-4-yl)-8,9-dihydropyrazolo[1,5-a]pyrido[3,2-e]pyrimidin-6(7H)-one] | 10 to 100 nM |
| Cn1ccc(-c2ccc(-c3cnn4c5c(c(C6CC7CCC(C6)N7C(=O)C(C)(CO)CO)nc34)C(=O)CCN5)cn2)n1 (stereo not drawn) [Example 5] | < 10 nM |
| O=C1CCNc2c1c(N1CCS(=O)(=O)CC1)nc1c(-c3cnc4ccc(F)cc4c3)cnn21 [Example 21] | < 10 nM |
